From ChEMBL document CHEMBL1795333, “Extraction of tacit knowledge from large ADME data sets via pairwise analysis” (Bioorg Med Chem, 2011) come the findings set out here.

The data set in a line: Apparent intrinsic clearance in human liver microsomes. Type of data set: ADME, Microsome. (Liver microsomes are vesicles of endoplasmic reticulum, rich in cytochrome P450 enzymes.)

The structures appear in SMILES notation.

In the case of `CC1CCN(C(=O)C2CCOC2)CC1N(C)c1ncnc2[nH]ccc12` (centres undefined), the intrinsic clearance (microsomal CLint) (in general, the capacity of the preparation to metabolise the compound, expressed as a volume cleared per time) came out at 11 µL/min/mg.
With `CC1CCN(C(=O)CS(C)(=O)=O)CC1N(C)c1ncnc2[nH]ccc12` (centres undefined) the figure was 8 µL/min/mg; with `CC1CCN(C(=O)CC(F)(F)F)CC1N(C)c1ncnc2[nH]ccc12` (centres undefined), 16 µL/min/mg; with `C[C@@H]1CCN(C(=O)CC#N)C[C@@H]1N(C)c1ncnc2[nH]ccc12` [TOFACITINIB], 10 µL/min/mg.
